Experimental data as given in patent US12145920B2, “Lanthionine c-like protein 2 ligands, cells prepared therewith, and therapies using same” (NImmune Biopharma, Inc., priority 2019, dated 2024).

Columns and labels:
[1] = Pharmacokinetics after oral dosing in mice, plasma LC-MS/MS; format: in vivo, C57BL/6 mice; parameters: exposure: unit not given here
Procedure: C57BL/6 mice were dosed orally with 10 and 40 mg/kg of BT-63 by oral gavage of methylcellulose solution containing BT-63. After gavage, blood was collected at 0.5, 1, 2, 4, 6, 8, 12 and 24 hours after treatment. Plasma was collected from blood by centrifugation. BT-63 was extracted from plasma and quantified by LC-MS/MS.

[2] = test system: resiquimod-treated C57BL6 mice; assay: TLR7/9 (resiquimod) induced mouse model of SLE; format: in vivo
Procedure: Resiquimod model. Resiquimod was prepared in a 1:3 ethanol:acetone mixture to provide 85 micrograms of resiquimod to each mouse. Resiquimod solution was well mixed and applied to the ear of C57BL6 mice three times weekly over a 2-week period. Mice were monitored for signs of disease daily.
Treatment administration. BT-63 was prepared within a 0.5% methylcellulose (12-15 cP) solution. Dosage used was 20 mg/kg delivered once daily. Mice were weighed on a weekly basis to update dosage formulation. Dosage was calculated based off mean body weights for each gender. Oral dosage was delivered by orogastric gavage of dosage in 0.2 mL volume.
Immunological analysis. Blood was collected by cardiac puncture into EDTA tube. Plasma was separated following centrifugation and assayed by ELISA for anti-dsDNA antibodies. Urine was collected for assay for albumin content to test for kidney function.
Spleens were excised, crushed and filtered to provide a cellular suspension. Red blood cells were lysed. Cells were labeled with mixtures of extracellular (CD45, CD3, CD4, CD8, CD19, NK1.1, CD25, F4/80, CD11b, Gr1, CX3CR1, CD64) and intracellular (Tbet, BCL6, FOXP3, IFNγ, IL6, IL10) antibodies in a sequential live staining in 96-well plates in preparation for flow cytometry. Data was captured on a BD FACS Celesta and analyzed using FacsDiva.

[3] = test system: influenza A (H1N1); assay: Mouse model of influenza A virus infection; format: in vivo, C57BL/6 mice
Procedure: Mouse model. Eight- to ten-week old wild type C57BL/6 mice were anesthetized by isoflurane inhalation. Mice were infected with influenza A (H1N1) intranasally at a challenge titer of 350 pfu/mouse. Mice were treated daily with BT-63 at a dose of 20 mg/kg orally via gavage. Mice were weighed and scored daily over 12 days. Mice were euthanized at days 12 to measure immune responses by flow cytometry in the lungs.
Flow Cytometry. Lungs will be chopped into small pieces and collected into RPMI/FBS/CaCl2 buffer containing collagenase (300 U/mL) and DNase (50 U/mL) for digestion. Tissues will be digested for 60 to 90 minutes under stirring at 37° C. Resultant cellular suspensions will be filtered through 100 μm strainers, centrifuged (300×g, 8 min), and washed in fresh RPMI. Red blood cells will be lysed by hypotonic lysis and removed by filtration. Cells will be washed and plated for flow cytometry staining. Cells will be labeled with mixtures of extracellular (CD45, CD3, CD4, CD8, CD19, NK1.1, CD25, F4/80, CD11b, CD11c, Gr1, CX3CR1, CD64, SiglecF, Ly6C) and intracellular (Tbet, RORγT, FOXP3, IFNγ, IL6, IL10, IFNb) antibodies in a sequential live staining in 96-well plates. Data will be acquired using a FACS Celesta flow cytometer with FACSDiva software.

[4] = test system: Naïve CD4+ T cells; assay: In vitro Treg differentiation of naive CD4+ T cells with BT-63; format: cell-based, mice
Procedure: Naïve CD4+ T cells can be isolated from the spleens of mice by magnetic sorting. The isolated cells can be incubated in anti-CD^3/anti-CD28 coated 96 well plates in Treg differentiation media. The Treg differentiation media can be Iscove's Modified Dulbecco's Medium (IMDM) media (ThermoFisher Scientific) supplemented with fetal bovine serum, HEPES, penicillin/streptomycin, L-glutamine, and differentiation agents. The Treg differentiation agents can be 10 nM all-trans-retinoic acid and 5 ng/mL TGF-β. Additional experiments can be conducted comparing differentiation in the Treg differentiation media with and without the addition of 10 ng/mL IL-2 or IL-12. Cells can be incubated with vehicle, 10 nM, or 100 nM BT-63 in differentiation media for 48 hours prior to assay. Prior to assay, cells can be stimulated with PMA and ionomycin for 6 hours.
Colonic lamina propria lymphocytes and cultured cells can be plated in 96 well plates (6×10^5 cells/well) and processed for immunophenotyping by flow cytometry as previously described. Briefly, cells can be incubated with fluorochrome conjugated antibodies to extracellular markers: CD45, CD4, CD3, CD25, CD8. Samples needing a secondary staining can be incubated with secondary antibodies, or streptavidin-conjugated fluorochrome. The samples can then be fixed and permeabilized. Cells can be incubated with antibodies to intracellular markers: Tbet, IFNγ, IL10, FOXP3, IL17, RORγT. Data can be acquired with a BD FACS Celesta flow cytometer and analyzed using FACS Diva software (BD Pharmingen).

[5] = test system: colonic CD4+ T cells from Mdr1a-/- mice; assay: Gene expression in colonic CD4+ T cells of treated Mdr1a-/- mice; format: in vivo; conditions: oral treatment, 10 weeks of age
Text: To identify signaling pathways modulated by BT-63 in vivo, we will isolate colonic CD4+ T cells from vehicle- and BT-63-treated Mdr1a−/− mice at presentation of colitis at 10 weeks of age. […] Meanwhile, expression of Pten and Ph1pp1 will increase. […] Cells will also be differentiated in the presence of inhibitors for PTEN (SF1670) or STATS (STAT5i). In the Treg differentiation media containing both IL-2 or IL-12, the addition of STAT5i will prevent the effects of BT-63 on CD25+ FOXP3+ and CD25+ Tbet+ cells. In contrast, SF1670 only will prevent effects of BT-63 on CD25+ Tbet+ cells in IL-2 containing media.

[6] = 2 weeks of oral treatment, 20 mg/kg
[7] = lung, day 12 post-infection, 20 mg/kg
[8] = lungs, day 12 post-infection, 20 mg/kg

O=C(CN1CCN(C(=O)c2cccc(-c3nc4ccccc4[nH]3)n2)CC1)c1ccccc1 [BT-63, 2-(4-(6-(1H-benzo[d]imidazol-2-yl)picolinoyl)piperazin-1-yl)-1-phenylethanone]
increase in maximum plasma concentration compared to BT-11 ([1]; equal oral doses (10 mg/kg)): > 100 fold
area under the curve exposure ([1]; oral 10 mg/kg): 1.055 µg·h/mL
maximum plasma concentration ([1]; oral 10 mg/kg): 585 ng/mL
exposure ([1]; oral 40 mg/kg): 11552
maximum plasma concentration ([1]; oral 40 mg/kg): 4465 ng/mL
concentration of anti-dsDNA antibodies in plasma [2, 6]: reduces
urine albumin content [2, 6]: reduction
IFNγ+ CD8+ T cells ([2]; spleen, 2 weeks, 20 mg/kg oral): reduced
IL6+ cells ([2]; spleen, 2 weeks, 20 mg/kg oral): reduced
increase in survival compared to vehicle ([3]; 12 days post-infection, 20 mg/kg oral daily): over 50%
disease activity index ([3]; day 3 through day 12 post-infection, 20 mg/kg oral vs vehicle): significantly reduces
IL10+ CD8+ T cells [3, 7]: increases
alveolar macrophages [3, 7]: increases
proportions of TNFa+ CD4+ T cells [3, 8]: decreased
proportions of neutrophils [3, 8]: decreased
establishment of a CD25+ FOXP3+ subtype ([4]; 100 nM, absence of IL-2): significantly increase
CD25+ FOXP3+ cells ([4]; IL-12-treated samples): significantly higher levels
mixed CD25+ Tbet+ subtype ([4]; Treg differentiation with or without IL-2): not be statistically altered
CD25+ Tbet+ cells ([4]; addition of IL-12): dose-dependent protection
STAT5a phosphorylation ([4]; base Treg differentiation media, also with IL-2 or IL-12): phosphorylated in a greater ratio
FOXO1 phosphorylation ([4]; base media and media containing IL-2, not IL-12): similarly be affected
CD25+ FOXP3+ cells ([4]; concentrations as low as 10 nM, presence of IL-2): significantly more
expression of Foxo1 [5]: significantly higher expression
expression of Ph1pp1 [5]: increase
expression of Pten [5]: increase
expression of Stat5a [5]: significantly higher expression
